Measurements taken from patent US20250268894A1, “MACROCYCLE COMPOUNDS FOR THE TREATMENT OF CANCER” (Hoffmann-La Roche Inc., priority 2022, published 2025).

What was measured:
[1] = test system: phosphorylation of ERK, KRAS G12D in AGS cells; assay: pERK inhibition assay, KRAS G12D in AGS cells; format: cell-based, human; conditions: 4 hours
Protocol: (§1) This assay is to measure the ability of test compounds in inhibiting the phosphorylation of ERK, the downstream signaling of KRAS G12C in NCI-H358 cells, KRAS G12D in AGS cells, and KRAS G12V in SW620. NCI-H358 (ATCC-CRL5807) cells, AGS (ATCC-CRL-1739) cells, SW620 (ATCC-CCL-227) cells were all grown and maintained using RPMI-1640 medium (Thermo Fisher Scientific) with 10% fetal bovine serum and 1% penicillin/streptomycin. On the day prior to compound addition, cells were plated in tissue culture-treated 96 well plates (Corning-3699) at a density of 30,000 cell/well, 20,000 cell/well, 30,000 cell/well for NCI-H358, AGS and SW620 respectively, and allowed for attachment overnight. Diluted compounds were then added in a final concentration of 0.5% DMSO. After 4 hours of incubation, the medium was removed, 100 μL of 4% formaldehyde was added, and the assay plates were incubated at room temperature for 20 minutes. The plates were then washed once with phosphate buffered saline (PBS), and permeabilized with 100 μL of chilled methanol for 10 minutes. Non-specific antibody binding to the plates was blocked using 50 μL 1X BSA blocking buffer (Thermo-37520, 10-fold dilution by Phosphate-Buffered Saline Tween (PBST) for at least 1 hour at room temperature.
(§2) The amount of phosphor-ERK was determined using an antibody specific for phosphorylated form of ERK. Primary antibody (PERK, CST-4370, Cell Signaling Technology) was diluted 1:300 in blocking buffer, with 50 μL aliquoted to each well, and incubated overnight at 4° C. Cells was washed five times for 5 minutes with PBST. Secondary antibody (HRP-linked anti-rabbit IgG, CST-7074, Cell Signaling Technology) was diluted 1:1000 in blocking buffer, and 50 μL was added to each well and incubated 1-2 hrs at room temperature. Cells was washed […] for 5 minutes with PBST, 100 μL TMB ELISA substrate (abcam-ab171523) were added and gently shake for 20 minutes. 50 μL stop solution (abcam-ab171529) were added, and then read the signal (OD450) by EnVision.
(§3) IC50 was determined by fitting a 4-parameter sigmoidal concentration response model.

[2] = test system: phosphorylation of ERK, KRAS G12C in NCI-H358 cells; assay: pERK inhibition assay, KRAS G12C in NCI-H358 cells; format: cell-based, human; conditions: NCI-H358, 4 hours
Protocol: as §1, §2, §3

[3] = test system: phosphorylation of ERK, KRAS G12V in SW620 cells; assay: pERK inhibition assay, KRAS G12V in SW620; format: cell-based, human
Protocol: as §1, §2, §3

[4] = test system: NCI-H358 cells (KRAS G12C); assay: Cell viability assay (Cell Counting Kit-8), KRAS G12C; format: cell-based; conditions: Homo sapiens, NCI-H358, 72 hrs
Protocol: (§4) The purpose of this cellular assay was to determine the effects of test compounds on the proliferation of human cancer cell lines NCI-H358 (ATCC-CRL5807) cells, AGS (ATCC-CRL-1739) cells, SW620 (ATCC-CCL-227) over a 3-day treatment period by quantifying the amount of NADPH present at endpoint using Cell Counting Kit-8.
(§5) Cells were seeded at 5,000 cells/well (NCI-H358), 2,000 cells/well (AGS)2,000 cells/well (SW620) in 96-well assay plates (Corning-3699) and incubated overnight. On the day of the assay, diluted compounds were then added in a final concentration of 0.5% DMSO. After 72 hrs incubation, a tenth of the volume of cell counting kit 8 (Dnjindo-CK04) was added into each well. Read the signal (OD450 minus OD650) using EnVision after 2 hrs incubation. IC50 was determined by fitting a 4-parameter sigmoidal concentration response model.

SW620 cells (KRAS G12V) = assay: Cell viability assay (Cell Counting Kit-8), KRAS G12V; format: cell-based; conditions: Homo sapiens, SW-620, SW620, 72 hrs
Protocol: as §4, §5

AGS cells (KRAS G12D) = assay: Cell viability assay (Cell Counting Kit-8), KRAS G12D; format: cell-based; conditions: Homo sapiens, 72 hrs
Protocol: as §4, §5

KRAS G12C-BRAF complex = KRAS G12C-BRAF complex (Homo sapiens (Human), UniProt P01116+P62937, G12C); assay: KRAS-BRAF with CYPA (500 nM) interaction assay (TR-FRET), G12C; format: biochemical
Sequence of KRAS G12C-BRAF complex (P01116-2 other isoform, or with tags, fused parts or gaps G12C): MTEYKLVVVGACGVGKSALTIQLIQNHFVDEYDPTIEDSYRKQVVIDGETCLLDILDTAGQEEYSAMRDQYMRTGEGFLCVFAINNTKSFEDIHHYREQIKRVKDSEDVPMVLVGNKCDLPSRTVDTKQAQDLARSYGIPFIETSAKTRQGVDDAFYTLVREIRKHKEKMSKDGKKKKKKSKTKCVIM
Sequence of KRAS G12C-BRAF complex (P62937 whole entry): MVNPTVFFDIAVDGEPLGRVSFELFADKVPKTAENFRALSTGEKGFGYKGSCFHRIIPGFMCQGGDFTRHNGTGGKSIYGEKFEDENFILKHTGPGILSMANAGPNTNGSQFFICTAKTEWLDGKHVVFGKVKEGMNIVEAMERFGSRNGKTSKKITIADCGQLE
Protocol: (§6) Kras-BRAF with CYPA (500 nM) Interaction Assay In this example, TR-FRET was also used to measure the compound or compound-CYPA dependent disruption of the KRAS G12C-BRAF complex. This protocol was also used to measure disruption of KRAS G12D or KRAS G12V binding to BRAF by a compound of the invention, respectively. […] Compound was present in plate wells as a 16-point 3-fold dilution series starting at a final concentration of 10 μM and incubated for 3 hours. […] TR-FRET signal was read on a […] microplate reader (Ex320 nm, Em 665/615 nm). Compounds that facilitate disruption of the KRAS-BRAF complex were identified as those eliciting a decrease in the TR-FRET ratio relative to DMSO control wells.

KRAS G12D-BRAF complex = KRAS G12D-BRAF complex (Homo sapiens (Human), UniProt P01116+P62937, G12D); assay: KRAS-BRAF with CYPA (500 nM) interaction assay (TR-FRET), G12D; format: biochemical
Sequence of KRAS G12D-BRAF complex (P01116-2 other isoform, or with tags, fused parts or gaps G12D): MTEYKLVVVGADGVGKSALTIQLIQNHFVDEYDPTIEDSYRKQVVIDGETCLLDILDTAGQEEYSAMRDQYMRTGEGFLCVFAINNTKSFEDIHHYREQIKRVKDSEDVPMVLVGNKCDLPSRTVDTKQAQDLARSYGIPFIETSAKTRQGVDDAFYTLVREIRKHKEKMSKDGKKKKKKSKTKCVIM
Sequence of KRAS G12D-BRAF complex (P62937 whole entry): as the sequence (P62937 whole entry) above
Protocol: as §6

KRAS G12V-BRAF complex = KRAS G12V-BRAF complex (Homo sapiens (Human), UniProt P01116+P62937, G12V); assay: KRAS-BRAF with CYPA (500 nM) interaction assay (TR-FRET), G12V; format: biochemical
Sequence of KRAS G12V-BRAF complex (P01116-2 other isoform, or with tags, fused parts or gaps G12V): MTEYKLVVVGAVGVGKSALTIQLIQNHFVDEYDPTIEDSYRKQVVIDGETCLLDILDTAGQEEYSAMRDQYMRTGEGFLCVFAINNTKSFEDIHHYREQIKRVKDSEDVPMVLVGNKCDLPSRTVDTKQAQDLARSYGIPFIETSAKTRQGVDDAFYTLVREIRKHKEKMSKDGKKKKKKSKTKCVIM
Sequence of KRAS G12V-BRAF complex (P62937 whole entry): as the sequence (P62937 whole entry) above
Protocol: as §6

[5] = Homo sapiens, SW-620, SW620, 4 hours

Row | Structure (SMILES) | IC50 [1] | IC50 [2] | IC50 ([3]; SW620, 4 hours) | IC50 ([1]; Homo sapiens) | IC50 [4] | IC50 ([2]; Homo sapiens) | IC50 [3, 5] | IC50 (SW620 cells (KRAS G12V)) | IC50 (AGS cells (KRAS G12D)) | IC50 (KRAS G12C-BRAF complex) | IC50 (KRAS G12D-BRAF complex) | IC50 (KRAS G12V-BRAF complex)
1 | COC(C)c1ncc(N2CCN(CC(F)(F)F)CC2)cc1-c1c2c3cc(c(F)cc3n1CC(F)(F)F)-c1csc(n1)CC(NC(=O)C(C(C)C)N(C)C(=O)N1CCN(CC(F)(F)F)CC1)C(=O)N1CCCC(N1)C(=O)OCC(C)(C)C2 [Example 19, N-[(1S)-1-[[(7S,13S)-24-fluoro-(20M)-20-[2-[(1S)-1-methoxyethyl]-5-[4-(2,2,2-trifluoroethyl)piperazin-1-yl]-3-pyridyl]-17,17-dimethyl-8,14-dioxo-21-(2,2,2-trifluoroethyl)-15-oxa-4-thia-9,21,27,28-tetrazapentacyclo[17.5.2.1^2,5.1^9,13.0^22,26]octacosa-1 (25),2,5 (28),19,22 (26),23-hexaen-7-yl]carbamoyl]-2-methyl-propyl]-N-methyl-4-(2,2,2-trifluoroethyl) piperazine-1-carboxamide] | 54 nM | 66 nM | 16 nM |  |  |  |  |  |  |  |  | 
2 | CO[C@@H](C)c1ncc(N2CCN(C)CC2)cc1-c1c2c3c(F)c(ccc3n1CC(F)(F)F)-c1csc(n1)C[C@H](NC(=O)[C@H](C(C)C)N(C)C(=O)N1CC(N(C)C)C1)C(=O)N1CCC[C@H](N1)C(=O)OCC(C)(C)C2 (atropisomer, axis not shown; (M)) [Example 2, 3-(dimethylamino)-N-[(1S)-1-[[(7S,13S)-25-fluoro-(20M)-20-[2-[(1S)-1-methoxyethyl]-5-(4-methylpiperazin-1-yl)-3-pyridyl]-17,17-dimethyl-8,14-dioxo-21-(2,2,2-trifluoroethyl)-15-oxa-4-thia-9,21,27,28-tetrazapentacyclo[17.5.2.1^2,5.1^9,13.0^22,26]octacosa-1(25),2,5 (28),19,22 (26),23-hexaen-7-yl]carbamoyl]-2-methyl-propyl]-N-methyl-azetidine-1-carboxamide] |  |  |  | 5 nM | 4 nM | 1 nM | 4 nM | 3 nM | 16 nM |  |  | 
3 | CCn1c(-c2cc(N3CCOCC3)cnc2[C@H](C)OC)c2c3cc(c(F)cc31)-c1csc(n1)C[C@H](NC(=O)[C@H](C(C)C)N1CCN(C)C1=O)C(=O)N1CCC[C@H](N1)C(=O)OCC(C)(C)C2 (atropisomer, axis not shown; (M)) [Example 8, (2S)-N-[(7S,13S)-21-ethyl-24-fluoro-(20M)-20-[2-[(1S)-1-methoxyethyl]-5-morpholino-3-pyridyl]-17,17-dimethyl-8,14-dioxo-15-oxa-4-thia-9,21,27,28-tetrazapentacyclo[17.5.2.1^2,5.1^9,13.0^22,26]octacosa-1 (25),2,5 (28),19,22 (26),23-hexaen-7-yl]-3-methyl-2-(3-methyl-2-oxo-imidazolidin-1-yl) butanamide] |  |  |  | 24 nM | 12 nM | 24 nM | 5 nM | 7 nM | 57 nM |  |  | 
4 | COC(C)c1ncc(N2CCN(CC(F)(F)F)CC2)cc1-c1c2c3cc(c(F)cc3n1CC(F)(F)F)-c1csc(n1)CC(NC(=O)C(C(C)C)N(C)C(=O)N1CCN(C)CC1)C(=O)N1CCCC(N1)C(=O)OCC(C)(C)C2 [Example 18, N-[(1S)-1-[[(7S,13S)-24-fluoro-(20M)-20-[2-[(1S)-1-methoxyethyl]-5-[4-(2,2,2-trifluoroethyl)piperazin-1-yl]-3-pyridyl]-17,17-dimethyl-8,14-dioxo-21-(2,2,2-trifluoroethyl)-15-oxa-4-thia-9,21,27,28-tetrazapentacyclo[17.5.2.1^2,5.1^9,13.0^22,26]octacosa-1 (25),2,5 (28),19,22 (26),23-hexaen-7-yl]carbamoyl]-2-methyl-propyl]-N,4-dimethyl-piperazine-1-carboxamide] | 12 nM | 23 nM | 7 nM |  |  |  |  |  |  |  |  | 
5 | CCn1c(-c2cc(N3CCOCC3)cnc2[C@H](C)OC)c2c3cc(c(F)cc31)-c1csc(n1)C[C@H](NC(=O)[C@H](C(C)C)N(C)C(=O)N1CC(F)(F)C1)C(=O)N1CCC[C@H](N1)C(=O)OCC(C)(C)C2 (atropisomer, axis not shown; (M)) [Example 7, N-[(1S)-1-[[(7S,13S)-21-ethyl-24-fluoro-(20M)-20-[2-[(1S)-1-methoxyethyl]-5-morpholino-3-pyridyl]-17,17-dimethyl-8,14-dioxo-15-oxa-4-thia-9,21,27,28-tetrazapentacyclo[17.5.2.1^2,5.1^9,13.0^22,26]octacosa-1 (25),2,5 (28),19,22 (26),23-hexaen-7-yl]carbamoyl]-2-methyl-propyl]-3,3-difluoro-N-methyl-azetidine-1-carboxamide] |  |  |  |  |  |  |  |  |  | 95 nM | 472 nM | 611 nM
6 | CO[C@@H](C)c1ncc(N2CCOCC2)cc1-c1c2c3cc(c(F)cc3n1CC(F)(F)F)-c1csc(n1)C[C@H](NC(=O)[C@H](C(C)C)N(C)C(=O)N1CC(N(C)C)C1)C(=O)N1CCC[C@H](N1)C(=O)OCC(C)(C)C2 (atropisomer, axis not shown; (M)) [Example 4, 3-(dimethylamino)-N-[(1S)-1-[[(7S,13S)-24-fluoro-(20M)-20-[2-[(1S)-1-methoxyethyl]-5-morpholino-3-pyridyl]-17,17-dimethyl-8,14-dioxo-21-(2,2,2-trifluoroethyl)-15-oxa-4-thia-9,21,27,28-tetrazapentacyclo[17.5.2.1^2,5.1^9,13.0^22,26]octacosa-1 (25),2,5 (28),19,22 (26),23-hexaen-7-yl]carbamoyl]-2-methyl-propyl]-N-methyl-azetidine-1-carboxamide] |  |  |  | 3 nM | 3 nM | 1 nM | 1 nM | 1 nM | 17 nM |  |  | 
7 | CO[C@@H](C)c1ncc(N2CCN(C)CC2)cc1-c1c2c3cc(ccc3n1CC(F)(F)F)-c1csc(n1)C[C@H](NC(=O)[C@H](C(C)C)N(C)C(=O)N1CCOCC1)C(=O)N1CCC[C@H](N1)C(=O)OCC(C)(C)C2 (atropisomer, axis not shown; (M)) [Example 3, N-[(1S)-1-[[(7S,13S)-24-fluoro-(20M)-20-[2-[(1S)-1-methoxyethyl]-5-(4-methylpiperazin-1-yl)-3-pyridyl]-17,17-dimethyl-8,14-dioxo-21-(2,2,2-trifluoroethyl)-15-oxa-4-thia-9,21,27,28-tetrazapentacyclo[17.5.2.1^2,5.1^9,13.0^22,26]octacosa-1 (25),2,5 (28),19,22 (26),23-hexaen-7-yl]carbamoyl]-2-methyl-propyl]-N-methyl-morpholine-4-carboxamide] |  |  |  | 1 nM | 1 nM | 1 nM | 1 nM | 1 nM | 15 nM |  |  | 
